US8501772B2, “3,8-diaminotetrahydroquinoline derivative” (Zeria Pharmaceutical Co., Ltd., priority 2008, dated 2013)
Structures can show the parent of a compound that is named as a salt.

The compounds below were run against T1, human GHS-R1a (Homo sapiens, UniProt Q92847) (assay: Agonistic activity by use of a cell line stably expressing human GHS-R1a (intracellular calcium increase)). Details: hGHS-R1a/CHO cells, percent increase in intracellular calcium vs 100 nM ghrelin; read-out: GHS-R agonistic activity (EC50: nM).
T1 construct: expressed in transfected cells
T1 sequence (Q92847 whole entry): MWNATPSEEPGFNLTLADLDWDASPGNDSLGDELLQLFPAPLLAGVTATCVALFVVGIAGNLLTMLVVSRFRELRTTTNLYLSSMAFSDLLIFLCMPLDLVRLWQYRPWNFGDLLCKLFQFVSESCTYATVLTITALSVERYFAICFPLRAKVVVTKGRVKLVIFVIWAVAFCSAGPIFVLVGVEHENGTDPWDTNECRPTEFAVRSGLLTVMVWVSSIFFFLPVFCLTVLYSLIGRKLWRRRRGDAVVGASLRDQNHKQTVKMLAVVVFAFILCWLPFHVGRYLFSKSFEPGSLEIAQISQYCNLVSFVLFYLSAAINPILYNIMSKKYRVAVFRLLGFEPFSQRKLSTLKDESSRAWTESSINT
Format: cell-based
Procedure: CHO-K1 cells were transfected with human GHS-R1a genes, to thereby provide cells stably expressing GHS-R1a (hGHS-R1a/CHO), and the agonistic activity of each compound was evaluated by use of the cells based on percent increase in intracellular calcium as an index.
The hGHS-R1a/CHO cells were inoculated at 6×10^4 cells/well in a 96-well plate (Clear bottom/Black plate, product of Corning), and cultured in Ham's F12 medium containing 10% fetal bovine serum at 37° C. and 5% CO2 for 18 hours. After culture, the medium was removed, and then the hGHS-R1a/CHO cells were cultured for two hours in a Hanks' balanced salt solution/HEPES (HBSS/HEPES, 100 μL) containing a calcium fluorescent indicator (4 μM Fluo-3AM, product of Dojin), 2 mM Probenecid, 0.1% Pluronic F-127, and 0.1% BSA, whereby the indicator was incorporated into the cells. After washing the cells, HBSS/HEPES (175 μL/well) containing 2 mM Probenecid and 0.1% BSA was added to the plate, and the fluorescence before and after addition of each test compound was determined by means of FLEXstation (Ex: 485 nm, Em: 525 nm, product of Molecular Devices). Each test compound was multi-fold diluted with dimethyl sulfoxide and then diluted with HBSS/HEPES containing 2 mM Probenecid, 0.04% Pluronic F-127, and 0.1% BSA, to thereby attain a final concentration of interest. The thus-diluted solution (25 μL/well) was added to the wells.
Agonistic activity(%)=(A−B)/(C−D)×100
A: Fluorescence intensity after addition of test compound
B: Fluorescence intensity before addition of test compound
C: Fluorescence intensity after addition of 100 nM ghrelin
D: Fluorescence intensity before addition of ghrelin

| SMILES | EC50 |
| --- | --- |
| CC(C)C[C@@H](NC(=O)C(C)(C)N)C(=O)NC1Cc2ccccc2N(Cc2ccccc2)C1=O (stereo partly drawn) [Comp. Ex. 1, (2R)-2-(2-Amino-2-methylpropanamido)-N-(1-benzyl-2-oxo-1,2,3,4-tetrahydroquinolin-3-yl)-4-methylpentanamide hydrochloride, reference compound] | 149 nM |
| CC(C)C[C@@H](NC(=O)[C@H](C)N)C(=O)NC1Cc2cccc(N3CCCC3=O)c2N(Cc2ccsc2)C1=O (stereo partly drawn) [Example 25h, (2R)-2-((S)-2-aminopropanamido)-4-methyl-N-[2-oxo-8-(2-oxopyrrolidin-1-yl)-1-(thiophen-3-ylmethyl)-1,2,3,4-tetrahydroquinolin-3-yl]pentanamide] | 6.13 nM |
| CC[C@](C)(N)C(=O)N[C@H](CC(C)C)C(=O)NC1Cc2cccc(N3CCCC3=O)c2N(Cc2ccsc2)C1=O (stereo partly drawn) [Example 25j, (2R)-2-((S)-2-amino-2-methylbutanamido)-4-methyl-N-[2-oxo-8-(2-oxopyrrolidin-1-yl)-1-(thiophen-3-ylmethyl)-1,2,3,4-tetrahydroquinolin-3-yl]pentanamide] | 4.13 nM |
| CC(C)(N)C(=O)N[C@H](Cc1c[nH]c2ccccc12)C(=O)NC1Cc2cccc(N3CCCC3=O)c2N(Cc2ccsc2)C1=O (stereo partly drawn) [Example 25l, N-[(2R)-3-(1H-indol-3-yl)-1-oxo-1-[2-oxo-8-(2-oxopyrrolidin-1-yl)-1-(thiophen-3-ylmethyl)-1,2,3,4-tetrahydroquinolin-3-ylamino]propan-2-yl]-2-amino-2-methylpropanamide] | < 0.1 nM |
| Cn1cc(C[C@@H](NC(=O)C(C)(C)N)C(=O)NC2Cc3cccc(N4CCCC4=O)c3N(Cc3ccsc3)C2=O)c2ccccc21 (stereo partly drawn) [Example 34b, 2-amino-2-methyl-N-[(2R)-3-(1-methyl-1H-indol-3-yl)-1-oxo-1-[2-oxo-8-(2-oxopyrrolidin-1-yl)-1-(thiophen-3-ylmethyl)-1,2,3,4-tetrahydroquinolin-3-ylamino]propan-2-yl]propanamide hydrochloride] | 0.052 nM |
| CCn1cc(C[C@@H](NC(=O)C(C)(C)N)C(=O)NC2Cc3cccc(N4CCCC4=O)c3N(Cc3ccsc3)C2=O)c2ccccc21 (stereo partly drawn) [Example 34c, 2-amino-N-[(2R)-3-(1-ethyl-1H-indol-3-yl)-1-oxo-1-[2-oxo-8-(2-oxopyrrolidin-1-yl)-1-(thiophen-3-ylmethyl)-1,2,3,4-tetrahydroquinolin-3-ylamino]propan-2-yl]-2-methylpropanamide hydrochloride] | 0.02 nM |
| CC(C)(N)C(=O)N[C@H](Cc1cn(CCF)c2ccccc12)C(=O)NC1Cc2cccc(N3CCCC3=O)c2N(Cc2ccsc2)C1=O (stereo partly drawn) [Example 34d, 2-amino-N-[(2R)-3-[1-(2-fluoroethyl)-1H-indol-3-yl]-1-oxo-1-[2-oxo-8-(2-oxopyrrolidin-1-yl)-1-(thiophen-3-ylmethyl)-1,2,3,4-tetrahydroquinolin-3-ylamino]propan-2-yl]-2-methylpropanamide hydrochloride] | 0.22 nM |
| CCCn1cc(C[C@@H](NC(=O)C(C)(C)N)C(=O)NC2Cc3cccc(N4CCCC4=O)c3N(Cc3ccsc3)C2=O)c2ccccc21 (stereo partly drawn) [Example 34e, 2-amino-2-methyl-N-[(2R)-1-oxo-1-[2-oxo-8-(2-oxopyrrolidin-1-yl)-1-(thiophen-3-ylmethyl)-1,2,3,4-tetrahydroquinolin-3-ylamino]-3-(1-propyl-1H-indol-3-yl)propan-2-yl]propanamide hydrochloride] | 0.07 nM |
| CC(C)n1cc(C[C@@H](NC(=O)C(C)(C)N)C(=O)NC2Cc3cccc(N4CCCC4=O)c3N(Cc3ccsc3)C2=O)c2ccccc21 (stereo partly drawn) [Example 34f, 2-amino-N-[(2R)-3-(1-isopropyl-1H-indol-3-yl)-1-oxo-1-[2-oxo-8-(2-oxopyrrolidin-1-yl)-1-(thiophen-3-ylmethyl)-1,2,3,4-tetrahydroquinolin-3-ylamino]propan-2-yl]-2-methylpropanamide hydrochloride] | 1.13 nM |
| CC(C)C[C@@H](NC(=O)[C@@H](C)N)C(=O)NC1Cc2cccc(N3CCCC3=O)c2N(Cc2ccsc2)C1=O (stereo partly drawn) [Example 34g, (2R)-2-((R)-2-aminopropanamido)-4-methyl-N-[2-oxo-8-(2-oxopyrrolidin-1-yl)-1-(thiophen-3-ylmethyl)-1,2,3,4-tetrahydroquinolin-3-yl]pentanamide hydrochloride] | 2.75 nM |
| CC[C@@](C)(N)C(=O)N[C@H](CC(C)C)C(=O)NC1Cc2cccc(N3CCCC3=O)c2N(Cc2ccsc2)C1=O (stereo partly drawn) [Example 34h, (2R)-2-((R)-2-amino-2-methylbutanamido)-4-methyl-N-[2-oxo-8-(2-oxopyrrolidin-1-yl)-1-(thiophen-3-ylmethyl)-1,2,3,4-tetrahydroquinolin-3-yl]pentanamide hydrochloride] | 0.74 nM |
| CC[C@@](C)(N)C(=O)N[C@H](Cc1cn(C)c2ccccc12)C(=O)NC1Cc2cccc(N3CCCC3=O)c2N(Cc2ccsc2)C1=O (stereo partly drawn) [Example 34i, (2R)-2-amino-2-methyl-N-[(2R)-3-(1-methyl-1H-indol-3-yl)-1-oxo-1-[2-oxo-8-(2-oxopyrrolidin-1-yl)-1-(thiophen-3-ylmethyl)-1,2,3,4-tetrahydroquinolin-3-ylamino]propan-2-yl]butanamide hydrochloride] | 0.2 nM |
| CC(C)C[C@@H](NC(=O)C(C)(C)N)C(=O)NC1Cc2cccc(N3CCCC3=O)c2N(Cc2ccsc2)C1=O (stereo partly drawn) [Example 34k, (2R)-2-(2-amino-2-methylpropanamido)-4-methyl-N-[2-oxo-8-(2-oxopyrrolidin-1-yl)-1-(thiophen-3-ylmethyl)-1,2,3,4-tetrahydroquinolin-3-yl]pentanamide(R)-(−)-mandelate] | 0.47 nM |
| CC(C)C[C@@H](NC(=O)C(C)(C)N)C(=O)NC1Cc2cccc(N3CCCC3=O)c2N(Cc2ccsc2)C1=O (stereo partly drawn) [Example 34l, (2R)-2-(2-amino-2-methylpropanamido)-4-methyl-N-[2-oxo-8-(2-oxopyrrolidin-1-yl)-1-(thiophen-3-ylmethyl)-1,2,3,4-tetrahydroquinolin-3-yl]pentanamide(S)-(+)-mandelate] | 0.37 nM |
| CC(C)C[C@@H](NC(=O)C(C)(C)N)C(=O)NC1Cc2cccc(N3CCCC3=O)c2N(Cc2cccs2)C1=O (stereo partly drawn) [Example 34m, (2R)-2-(2-amino-2-methylpropanamido)-4-methyl-N-[2-oxo-8-(2-oxopyrrolidin-1-yl)-1-(thiophen-2-ylmethyl)-1,2,3,4-tetrahydroquinolin-3-yl]pentanamide hydrochloride] | 1.5 nM |
| CC(C)C[C@@H](NC(=O)C(C)(C)N)C(=O)NC1Cc2cccc(N3CCCC3=O)c2N(Cc2ccccc2)C1=O (stereo partly drawn) [Example 35, (2R)-2-(2-Amino-2-methylpropanamido)-N-[1-benzyl-2-oxo-8-(2-oxopyrrolidin-1-yl)-1,2,3,4-tetrahydroquinolin-3-yl]-4-methylpentanamide hydrochloride] | 0.9 nM |
| CC(C)C[C@@H](NC(=O)C(C)(C)N)C(=O)NC1Cc2cccc(N3CCCCC3=O)c2N(Cc2ccccc2)C1=O (stereo partly drawn) [Example 36, (2R)-2-(2-Amino-2-methylpropanamido)-N-[1-benzyl-2-oxo-8-(2-oxopiperidin-1-yl)-1,2,3,4-tetrahydroquinolin-3-yl]-4-methylpentanamide hydrochloride] | 1.1 nM |
| CC(C)C[C@@H](NC(=O)C(C)(C)N)C(=O)NC1Cc2cccc(N3C(=O)CCC3=O)c2N(Cc2ccccc2)C1=O (stereo partly drawn) [Example 37, (2R)-2-(2-Amino-2-methylpropanamido)-N-[1-benzyl-8-(2,5-dioxopyrrolidin-1-yl)-2-oxo-1,2,3,4-tetrahydroquinolin-3-yl]-4-methylpentanamide hydrochloride] | 1 nM |
| CC(C)(N)C(=O)N[C@H](Cc1c[nH]c2ccccc12)C(=O)NC1Cc2cccc(N3CCCC3=O)c2N(Cc2ccccc2)C1=O (stereo partly drawn) [Example 38, 2-Amino-N-[(2R)-1-[1-benzyl-2-oxo-8-(2-oxopyrrolidin-1-yl)-1,2,3,4-tetrahydroquinolin-3-ylamino]-3-(1H-indol-3-yl)-1-oxopropan-2-yl]-2-methylpropanamide hydrochloride] | 0.1 nM |
| CCN(CC)c1cccc2c1N(Cc1ccccn1)C(=O)C(NC(=O)[C@@H](CC(C)C)NC(=O)[C@H](N)Cc1ccc(O)cc1)C2 (stereo partly drawn) [Example 39, (2R)-2-((R)-2-Amino-3-(4-hydroxyphenyl)propanamido)-N-(8-(diethylamino)-2-oxo-1-(pyridin-2-ylmethyl)-1,2,3,4-tetrahydroquinolin-3-yl)-4-methylpentanamide hydrochloride] | 12.9 nM |
| CC(=O)Nc1cccc2c1N(Cc1ccccn1)C(=O)C(NC(=O)[C@@H](CC(C)C)NC(=O)C(C)(C)N)C2 (stereo partly drawn) [Example 40, (2R)—N-(8-Acetamido-2-oxo-1-(pyridin-2-ylmethyl)-1,2,3,4-tetrahydroquinolin-3-yl)-2-(2-amino-2-methylpropanamido)-4-methylpentanamide] | 80 nM |
| CN(C)c1cccc2c1N(Cc1ccccn1)C(=O)C(NC(=O)[C@H](NC(=O)C(C)(C)N)c1ccccc1)C2 (stereo partly drawn) [Example 41, 2-Amino-N-((1R)-2-(8-(dimethylamino)-2-oxo-1-(pyridin-2-ylmethyl)-1,2,3,4-tetrahydroquinolin-3-ylamino)-2-oxo-1-phenylethyl)-2-methylpropanamide hydrochloride] | 11.3 nM |
